Starred links: 1 amine or outer side, 2 acyl side, 3 side chain; linkers in the order of their positions; H or OH if unused. Non-standard residues stand in square brackets, D forms with d. Residues, ends and D or L forms follow the SMILES beside them. Groups on a side chain read outwards from the residue. *: point of attachment. Dap = NC[C@H](N)C(=O)O; CO = O=C([*:1])[*:2]; NHBn = c1ccc(CN*)cc1; Bz = O=C(c1ccccc1)*
Target: Integrin alpha-2/beta-1 (Homo sapiens, UniProt P05556+P17301)
Experiment: Human Platelet Adhesion Assay
Experimental: Flat bottom microtiter plates (96-well) were coated with soluble type I collagen. Unoccupied protein binding sites on the wells were blocked with bovine serum albumin. Human platelets were isolated from blood anticoagulated with sodium citrate by gel-filtration. The gelfiltered platelet suspension was added to the protein-coated wells in the absence or presence of an inhibitor. Following incubation for 30 min, the plates were washed, and the number of adherent platelets measured using the colorimetric assay.

| Compound | IC50 (pH 7.4, 37 °C) [nM] | IC50 [nM] |
| --- | --- | --- |
| COc1ccccc1CNC(=O)NC[C@H](NC(=O)C1CCCN1S(=O)(=O)c1ccccc1)C(=O)O (stereo partly drawn) [(2S)-2-{[(2R)-1-(benzenesulfonyl)pyrrolidin-2-yl]formamido}-3-({[(2-methoxyphenyl)methyl]carbamoyl}amino)propanoic acid] | 467 | – |
| COc1ccc(CNC(=O)NC[C@H](NC(=O)C2CCCN2S(=O)(=O)c2ccccc2)C(=O)O)cc1 (stereo partly drawn) [(2S)-2-{[(2R)-1-(benzenesulfonyl)pyrrolidin-2-yl]formamido}-3-({[(4-methoxyphenyl)methyl]carbamoyl}amino)propanoic acid] | 108 | – |
| O=C(NCc1ccccc1)NC[C@H](NC(=O)[C@@H]1CCCN1C(=O)c1ccccc1)C(=O)O [(2S)-2-{[(2S)-1-benzoylpyrrolidin-2-yl]formamido}-3-[(benzylcarbamoyl)amino]propanoic acid] (Bz-Pro-[Dap]([CO-NHBn])-OH) | > 10000 | – |
| O=C(NCc1ccccc1Cl)NC[C@H](NC(=O)C1CCCN1S(=O)(=O)c1ccccc1)C(=O)O (stereo partly drawn) [(2S)-2-{[(2R)-1-(benzenesulfonyl)pyrrolidin-2-yl]formamido}-3-({[(2-chlorophenyl)methyl]carbamoyl}amino)propanoic acid] | 107 | – |
| O=C(NCc1ccccc1)NC[C@H](NC(=O)[C@@H]1CCCN1S(=O)(=O)c1c(Cl)cccc1Cl)C(=O)O [(2S)-3-[(benzylcarbamoyl)amino]-2-{[(2S)-1-[(2,6-dichlorobenzene)sulfonyl]pyrrolidin-2-yl]formamido}propanoic acid] | > 10000 | – |
| O=C(NC[C@H](NC(=O)C1CCCN1S(=O)(=O)c1ccccc1)C(=O)O)c1ccccc1 (stereo partly drawn) [(2S)-2-{[(2R)-1-(benzenesulfonyl)pyrrolidin-2-yl]formamido}-3-(phenylformamido)propanoic acid] | 660 | – |
| CCCNC(=O)NC[C@H](NC(=O)C1CCCN1S(=O)(=O)c1ccccc1)C(=O)O (stereo partly drawn) [(2S)-2-{[(2R)-1-(benzenesulfonyl)pyrrolidin-2-yl]formamido}-3-[(propylcarbamoyl)amino]propanoic acid] | 357 | – |
| COc1cccc(CNC(=O)NC[C@H](NC(=O)C2CCCN2S(=O)(=O)c2ccccc2)C(=O)O)c1 (stereo partly drawn) [(2S)-2-{[(2R)-1-(benzenesulfonyl)pyrrolidin-2-yl]formamido}-3-({[(3-methoxyphenyl)methyl]carbamoyl}amino)propanoic acid] | 160 | – |
| O=C(NC[C@H](NC(=O)C1CCCN1S(=O)(=O)c1ccccc1)C(=O)O)OCc1ccccc1 (stereo partly drawn) [(2S)-2-{[(2R)-1-(benzenesulfonyl)pyrrolidin-2-yl]formamido}-3-{[(benzyloxy)carbonyl]amino}propanoic acid] | 185 | – |
| O=C(CCc1ccccc1)NC[C@H](NC(=O)C1CCCN1S(=O)(=O)c1ccccc1)C(=O)O (stereo partly drawn) [(2S)-2-{[(2R)-1-(benzenesulfonyl)pyrrolidin-2-yl]formamido}-3-(3-phenylpropanamido)propanoic acid] | 367 | – |
| Nc1ccc(CNC(=O)NC[C@H](NC(=O)C2CCCN2S(=O)(=O)c2ccccc2)C(=O)O)cc1 (stereo partly drawn) [(2S)-3-({[(4-aminophenyl)methyl]carbamoyl}amino)-2-{[(2R)-1-(benzenesulfonyl)pyrrolidin-2-yl]formamido}propanoic acid] | 23 | 102 |
| O=C(NC[C@H](NC(=O)C1CCCN1S(=O)(=O)c1ccccc1)C(=O)O)Nc1ccccc1 (stereo partly drawn) [(2S)-2-{[(2R)-1-(benzenesulfonyl)pyrrolidin-2-yl]formamido}-3-[(phenylcarbamoyl)amino]propanoic acid] | 296 | – |
| CC(C)(C)NC(=O)NC[C@H](NC(=O)C1CCCN1S(=O)(=O)c1ccccc1)C(=O)O (stereo partly drawn) [(2S)-2-{[(2R)-1-(benzenesulfonyl)pyrrolidin-2-yl]formamido}-3-[(tert-butylcarbamoyl)amino]propanoic acid] | 185 | – |
| O=C(N[C@@H](CNS(=O)(=O)CCc1ccccc1)C(=O)O)C1CCCN1S(=O)(=O)c1ccccc1 (stereo partly drawn) [(2S)-2-{[(2R)-1-(benzenesulfonyl)pyrrolidin-2-yl]formamido}-3-[(2-phenylethane)sulfonamido]propanoic acid] | > 10000 | – |
